In paper PMC8371461 (Frontiers in Pharmacology, 2021):

Assays:
CDK9 = molecular target: T1, CDK9 (Homo sapiens, UniProt P50750); experiment: kinome scan; type: binding; conditions: 10 µM
T1 construct: purchased DiscoverX (KINOMEscan)

NLK = molecular target: T2, NLK (Homo sapiens, UniProt Q9UBE8); experiment: kinome scan; type: binding; conditions: 10 µM
T2 construct: purchased DiscoverX (KINOMEscan)

MST1 = molecular target: T3, MST1 (Homo sapiens, UniProt Q13043); experiment: kinome scan; type: binding; conditions: 10 µM
T3 construct: purchased DiscoverX (KINOMEscan)

TLK1 = molecular target: T4, TLK1 (Homo sapiens, UniProt Q9UKI8); experiment: kinome scan; type: binding; conditions: 10 µM
T4 construct: purchased DiscoverX (KINOMEscan)

RIPK1 = molecular target: T5, RIPK1 (Homo sapiens, UniProt Q13546); experiment: kinome scan; type: binding; conditions: 10 µM
T5 construct: purchased DiscoverX (KINOMEscan)

EGFR(E746-A750del) = molecular target: T6, EGFR(E746-A750del) (Homo sapiens, UniProt P00533, DEL746-750); experiment: kinome scan; type: binding; conditions: 10 µM
T6 construct: purchased DiscoverX (KINOMEscan)

PIK3C2G = molecular target: T7, PIK3C2G (Homo sapiens, UniProt O75747); experiment: kinome scan; type: binding
T7 construct: purchased DiscoverX (KINOMEscan)
T7 sequence (O75747 whole entry): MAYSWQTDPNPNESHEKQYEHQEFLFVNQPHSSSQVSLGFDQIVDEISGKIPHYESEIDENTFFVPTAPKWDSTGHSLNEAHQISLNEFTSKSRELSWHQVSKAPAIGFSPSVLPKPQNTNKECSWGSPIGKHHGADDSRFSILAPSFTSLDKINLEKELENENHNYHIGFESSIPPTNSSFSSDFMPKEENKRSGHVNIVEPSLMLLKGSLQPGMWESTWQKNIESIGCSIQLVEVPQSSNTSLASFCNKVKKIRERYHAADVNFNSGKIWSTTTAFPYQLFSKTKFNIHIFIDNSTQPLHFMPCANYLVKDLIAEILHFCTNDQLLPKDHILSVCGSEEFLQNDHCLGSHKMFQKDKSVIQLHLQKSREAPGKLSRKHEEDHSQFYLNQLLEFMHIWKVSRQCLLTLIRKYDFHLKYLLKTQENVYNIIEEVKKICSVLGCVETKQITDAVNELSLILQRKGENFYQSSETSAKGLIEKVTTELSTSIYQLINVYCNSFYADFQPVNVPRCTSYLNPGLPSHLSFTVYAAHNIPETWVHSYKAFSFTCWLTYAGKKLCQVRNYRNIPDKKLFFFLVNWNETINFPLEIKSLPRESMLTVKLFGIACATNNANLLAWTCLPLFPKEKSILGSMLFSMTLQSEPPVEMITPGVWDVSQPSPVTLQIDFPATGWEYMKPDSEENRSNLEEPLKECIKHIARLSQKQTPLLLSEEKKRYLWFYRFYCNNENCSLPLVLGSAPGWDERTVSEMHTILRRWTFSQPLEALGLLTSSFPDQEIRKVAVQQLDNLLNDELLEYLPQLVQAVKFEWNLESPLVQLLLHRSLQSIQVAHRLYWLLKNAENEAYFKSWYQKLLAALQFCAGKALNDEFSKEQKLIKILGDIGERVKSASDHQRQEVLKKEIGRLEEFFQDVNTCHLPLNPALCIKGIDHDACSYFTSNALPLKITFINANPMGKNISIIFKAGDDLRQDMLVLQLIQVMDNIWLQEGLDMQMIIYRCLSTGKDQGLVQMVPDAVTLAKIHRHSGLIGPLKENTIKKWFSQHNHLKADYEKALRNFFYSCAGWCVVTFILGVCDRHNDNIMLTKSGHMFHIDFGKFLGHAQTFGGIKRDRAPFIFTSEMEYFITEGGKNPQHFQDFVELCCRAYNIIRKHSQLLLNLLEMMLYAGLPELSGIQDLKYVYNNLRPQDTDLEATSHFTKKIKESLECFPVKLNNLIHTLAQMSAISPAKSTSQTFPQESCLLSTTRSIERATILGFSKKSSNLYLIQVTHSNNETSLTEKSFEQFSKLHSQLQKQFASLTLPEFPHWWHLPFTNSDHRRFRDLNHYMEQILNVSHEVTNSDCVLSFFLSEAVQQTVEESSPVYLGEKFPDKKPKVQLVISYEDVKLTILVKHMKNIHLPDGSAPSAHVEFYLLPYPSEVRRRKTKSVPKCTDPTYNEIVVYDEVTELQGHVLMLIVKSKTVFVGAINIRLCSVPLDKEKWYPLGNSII

ERK5 = molecular target: T8, ERK5 (Homo sapiens, UniProt Q13164); experiment: kinome scan; type: binding; conditions: 10 µM
T8 construct: purchased DiscoverX (KINOMEscan)

PKMYT1 = molecular target: T9, PKMYT1 (Homo sapiens, UniProt Q99640); experiment: kinome scan; type: binding; conditions: 10 µM
T9 construct: purchased DiscoverX (KINOMEscan)

PIM3 = molecular target: T10, PIM3 (Homo sapiens, UniProt Q86V86); experiment: kinome scan; type: binding; conditions: 10 µM
T10 construct: purchased DiscoverX (KINOMEscan)

EPHA8 = molecular target: T11, EPHA8 (Homo sapiens, UniProt P29322); experiment: kinome scan; type: binding; conditions: 10 µM
T11 construct: purchased DiscoverX (KINOMEscan)

TRKC = molecular target: T12, TRKC (Homo sapiens, UniProt Q16288); experiment: kinome scan; type: binding; conditions: 10 µM
T12 construct: purchased DiscoverX (KINOMEscan)
T12 sequence (Q16288 32-839): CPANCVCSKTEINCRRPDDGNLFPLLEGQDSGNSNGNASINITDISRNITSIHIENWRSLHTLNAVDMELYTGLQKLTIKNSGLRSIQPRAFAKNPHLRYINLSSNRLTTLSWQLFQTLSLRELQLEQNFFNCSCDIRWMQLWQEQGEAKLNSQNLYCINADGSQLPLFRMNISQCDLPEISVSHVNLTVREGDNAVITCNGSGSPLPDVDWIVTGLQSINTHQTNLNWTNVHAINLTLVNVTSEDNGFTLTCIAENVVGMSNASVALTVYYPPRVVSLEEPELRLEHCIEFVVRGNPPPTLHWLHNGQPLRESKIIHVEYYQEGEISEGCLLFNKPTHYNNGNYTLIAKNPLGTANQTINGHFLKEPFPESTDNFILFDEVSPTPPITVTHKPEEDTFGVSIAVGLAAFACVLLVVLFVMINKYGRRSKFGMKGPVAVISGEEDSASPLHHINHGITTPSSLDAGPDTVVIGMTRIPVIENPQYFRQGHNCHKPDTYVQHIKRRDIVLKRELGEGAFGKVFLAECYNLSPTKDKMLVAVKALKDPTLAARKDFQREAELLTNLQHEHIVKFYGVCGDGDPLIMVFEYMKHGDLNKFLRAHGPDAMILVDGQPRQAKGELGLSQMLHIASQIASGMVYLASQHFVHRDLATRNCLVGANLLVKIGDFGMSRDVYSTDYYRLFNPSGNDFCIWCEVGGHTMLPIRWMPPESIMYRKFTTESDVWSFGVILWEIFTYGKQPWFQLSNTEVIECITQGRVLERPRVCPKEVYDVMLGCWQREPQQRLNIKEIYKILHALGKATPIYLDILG

YSK1 = molecular target: T13, YSK1 (Homo sapiens, UniProt O00506); experiment: kinome scan; type: binding; conditions: 10 µM
T13 construct: purchased DiscoverX (KINOMEscan)
T13 sequence (O00506 whole entry): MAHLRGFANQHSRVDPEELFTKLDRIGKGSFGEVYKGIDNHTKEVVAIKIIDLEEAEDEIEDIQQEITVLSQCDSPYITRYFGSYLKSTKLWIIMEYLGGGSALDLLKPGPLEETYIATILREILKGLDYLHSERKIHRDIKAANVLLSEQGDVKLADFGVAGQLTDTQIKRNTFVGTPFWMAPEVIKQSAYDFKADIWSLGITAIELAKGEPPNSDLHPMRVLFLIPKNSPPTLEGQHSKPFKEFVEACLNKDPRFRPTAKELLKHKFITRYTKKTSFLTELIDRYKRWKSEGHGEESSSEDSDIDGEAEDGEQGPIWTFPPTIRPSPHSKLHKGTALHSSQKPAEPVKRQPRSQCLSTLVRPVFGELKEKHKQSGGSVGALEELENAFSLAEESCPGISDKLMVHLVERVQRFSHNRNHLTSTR

GRK4 = molecular target: T14, GRK4 (Homo sapiens, UniProt P32298); experiment: kinome scan; type: binding; conditions: 10 µM
T14 construct: purchased DiscoverX (KINOMEscan)

IKK-beta = molecular target: T15, IKK-beta (Homo sapiens, UniProt O14920); experiment: kinome scan; type: binding; conditions: 10 µM
T15 construct: purchased DiscoverX (KINOMEscan)
T15 sequence (O14920 whole entry): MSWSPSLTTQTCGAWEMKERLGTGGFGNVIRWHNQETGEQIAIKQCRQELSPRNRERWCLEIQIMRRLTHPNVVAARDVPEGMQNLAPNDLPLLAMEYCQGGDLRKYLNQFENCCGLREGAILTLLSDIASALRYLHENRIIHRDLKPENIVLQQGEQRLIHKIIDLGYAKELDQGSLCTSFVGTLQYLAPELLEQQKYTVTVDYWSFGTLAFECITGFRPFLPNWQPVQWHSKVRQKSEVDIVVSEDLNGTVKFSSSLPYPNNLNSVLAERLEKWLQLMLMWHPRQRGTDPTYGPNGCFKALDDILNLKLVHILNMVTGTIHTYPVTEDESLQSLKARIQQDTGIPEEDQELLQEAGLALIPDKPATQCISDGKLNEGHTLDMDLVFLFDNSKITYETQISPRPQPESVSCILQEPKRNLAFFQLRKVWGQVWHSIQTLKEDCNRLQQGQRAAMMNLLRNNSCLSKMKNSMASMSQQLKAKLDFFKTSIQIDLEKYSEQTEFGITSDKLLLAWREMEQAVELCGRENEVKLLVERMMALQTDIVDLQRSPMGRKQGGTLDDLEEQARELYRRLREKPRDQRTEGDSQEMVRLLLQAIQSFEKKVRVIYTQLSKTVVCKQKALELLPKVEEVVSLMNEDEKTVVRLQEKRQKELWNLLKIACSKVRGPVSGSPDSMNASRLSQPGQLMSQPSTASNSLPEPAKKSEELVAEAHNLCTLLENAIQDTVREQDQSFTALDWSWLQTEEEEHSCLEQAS

PAK1 = molecular target: T16, PAK1 (Homo sapiens, UniProt Q13153); experiment: kinome scan; type: binding; conditions: 10 µM
T16 construct: purchased DiscoverX (KINOMEscan)

p38-beta = molecular target: T17, p38-beta (Homo sapiens, UniProt Q15759); experiment: kinome scan; type: binding; conditions: 10 µM
T17 construct: purchased DiscoverX (KINOMEscan)

MAP3K3 = molecular target: T18, MAP3K3 (Homo sapiens, UniProt Q99759); experiment: kinome scan; type: binding; conditions: 10 µM
T18 construct: purchased DiscoverX (KINOMEscan)

PIM2 = molecular target: T19, PIM2 (Homo sapiens, UniProt Q9P1W9); experiment: kinome scan; type: binding; conditions: 10 µM
T19 construct: purchased DiscoverX (KINOMEscan)

CSNK1G1 = molecular target: T20, CSNK1G1 (Homo sapiens, UniProt Q9HCP0); experiment: kinome scan; type: binding; conditions: 10 µM
T20 construct: purchased DiscoverX (KINOMEscan)

EIF2AK1 = molecular target: T21, EIF2AK1 (Homo sapiens, UniProt Q9BQI3); experiment: kinome scan; type: binding; conditions: 10 µM
T21 construct: purchased DiscoverX (KINOMEscan)
T21 sequence (Q9BQI3 whole entry): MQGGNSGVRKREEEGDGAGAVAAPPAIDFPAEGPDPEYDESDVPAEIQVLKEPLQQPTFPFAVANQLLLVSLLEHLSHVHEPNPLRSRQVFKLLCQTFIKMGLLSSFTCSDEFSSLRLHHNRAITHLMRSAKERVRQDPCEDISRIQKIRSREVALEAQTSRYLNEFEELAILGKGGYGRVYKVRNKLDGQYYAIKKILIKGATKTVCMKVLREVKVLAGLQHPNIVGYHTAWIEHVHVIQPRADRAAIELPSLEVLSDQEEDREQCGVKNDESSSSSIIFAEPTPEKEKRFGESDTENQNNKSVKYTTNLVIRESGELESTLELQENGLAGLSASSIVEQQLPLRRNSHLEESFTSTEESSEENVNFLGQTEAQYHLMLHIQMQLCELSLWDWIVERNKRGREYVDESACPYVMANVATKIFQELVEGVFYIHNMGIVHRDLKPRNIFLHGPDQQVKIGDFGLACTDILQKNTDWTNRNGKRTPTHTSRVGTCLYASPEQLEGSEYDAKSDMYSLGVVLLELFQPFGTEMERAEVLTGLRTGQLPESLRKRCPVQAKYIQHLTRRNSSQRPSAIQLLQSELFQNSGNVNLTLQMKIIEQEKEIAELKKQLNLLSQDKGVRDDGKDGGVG

MYLK2 = molecular target: T22, MYLK2 (Homo sapiens, UniProt Q9H1R3); experiment: kinome scan; type: binding; conditions: 10 µM
T22 construct: purchased DiscoverX (KINOMEscan)

KIT(D816V) = molecular target: T23, KIT(D816V) (Homo sapiens, UniProt P10721, D816V); experiment: kinome scan; type: binding; conditions: 10 µM
T23 construct: purchased DiscoverX (KINOMEscan)

CLK4 = molecular target: T24, CLK4 (Homo sapiens, UniProt Q9HAZ1); experiment: kinome scan; type: binding; conditions: 10 µM
T24 construct: purchased DiscoverX (KINOMEscan)

CDK3 = molecular target: T25, CDK3 (Homo sapiens, UniProt Q00526); experiment: kinome scan; type: binding; conditions: 10 µM
T25 construct: purchased DiscoverX (KINOMEscan)

MAP4K2 = molecular target: T26, MAP4K2 (Homo sapiens, UniProt Q12851); experiment: kinome scan; type: binding; conditions: 10 µM
T26 construct: purchased DiscoverX (KINOMEscan)

WEE2 = molecular target: T27, WEE2 (Homo sapiens, UniProt P0C1S8); experiment: kinome scan; type: binding; conditions: 10 µM
T27 construct: purchased DiscoverX (KINOMEscan)

TYK2 = TYK2 (Homo sapiens, UniProt P29597); experiment: Kd select analysis (DiscoverX); type: binding
Experimental: Hits are identified by an ultra-sensitive quantitative PCR detecting the specific DNA tag linked to each kinase (Supplementary Figure S2). The drug is used at a concentration of 10 µM and results are expressed as the percentage of signal (kinase PCR detection) with respect to DMSO control conditions. […] Interactions between 0 and 20% of reduction were considered to be the most significant ones.

RIPK4 = molecular target: T28, RIPK4 (Homo sapiens, UniProt P57078); experiment: kinome scan; type: binding; conditions: 10 µM
T28 construct: purchased DiscoverX (KINOMEscan)
T28 sequence (P57078 whole entry): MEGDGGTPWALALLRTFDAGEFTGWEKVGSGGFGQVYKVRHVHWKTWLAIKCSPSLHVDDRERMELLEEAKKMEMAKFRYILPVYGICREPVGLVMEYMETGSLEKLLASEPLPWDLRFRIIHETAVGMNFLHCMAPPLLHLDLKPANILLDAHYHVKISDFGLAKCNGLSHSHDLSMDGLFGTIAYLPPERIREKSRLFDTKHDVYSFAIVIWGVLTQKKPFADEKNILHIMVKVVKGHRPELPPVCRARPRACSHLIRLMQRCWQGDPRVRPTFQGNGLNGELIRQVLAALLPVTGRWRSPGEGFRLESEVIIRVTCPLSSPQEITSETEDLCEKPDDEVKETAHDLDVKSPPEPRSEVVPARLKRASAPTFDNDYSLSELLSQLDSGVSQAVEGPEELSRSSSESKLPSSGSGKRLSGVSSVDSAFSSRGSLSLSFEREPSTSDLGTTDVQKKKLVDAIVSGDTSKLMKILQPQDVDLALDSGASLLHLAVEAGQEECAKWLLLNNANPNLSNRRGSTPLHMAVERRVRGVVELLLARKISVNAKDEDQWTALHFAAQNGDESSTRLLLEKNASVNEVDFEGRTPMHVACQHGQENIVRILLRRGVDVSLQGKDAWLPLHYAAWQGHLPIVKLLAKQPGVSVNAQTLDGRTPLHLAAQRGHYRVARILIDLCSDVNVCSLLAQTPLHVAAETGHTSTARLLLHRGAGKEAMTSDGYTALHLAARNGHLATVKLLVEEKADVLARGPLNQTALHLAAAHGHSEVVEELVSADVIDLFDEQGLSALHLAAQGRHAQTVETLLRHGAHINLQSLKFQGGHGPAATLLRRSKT

DYRK1A = molecular target: T29, DYRK1A (Homo sapiens, UniProt Q13627); experiment: kinome scan; type: binding; conditions: 10 µM
T29 construct: purchased DiscoverX (KINOMEscan)

AURKA = molecular target: T30, AURKA (Homo sapiens, UniProt O14965); experiment: kinome scan; type: binding; conditions: 10 µM
T30 construct: purchased DiscoverX (KINOMEscan)

BMPR1B = molecular target: T31, BMPR1B (Homo sapiens, UniProt O00238); experiment: kinome scan; type: binding; conditions: 10 µM
T31 construct: purchased DiscoverX (KINOMEscan)

JNK1 = molecular target: T32, JNK1 (Homo sapiens, UniProt P45983); experiment: kinome scan; type: binding; conditions: 10 µM
T32 construct: purchased DiscoverX (KINOMEscan)

HPK1 = molecular target: T33, HPK1 (Homo sapiens, UniProt Q92918); experiment: kinome scan; type: binding; conditions: 10 µM
T33 construct: purchased DiscoverX (KINOMEscan)

[1] = test system: Mitochondrial membrane potential; design: method as in CHEMBL1614240; conditions: reported activity, data mining; ref CHEMBL1614240; cited from earlier work
MEK4 = molecular target: T34, MEK4 (Homo sapiens, UniProt P45985); experiment: kinome scan; type: binding; conditions: 10 µM
T34 construct: purchased DiscoverX (KINOMEscan)

RET(V804M) = molecular target: T35, RET(V804M) (Homo sapiens, UniProt P07949, V804M); experiment: kinome scan; type: binding; conditions: 10 µM
T35 construct: purchased DiscoverX (KINOMEscan)

ACVR2A = molecular target: T36, ACVR2A (Homo sapiens, UniProt P27037); experiment: kinome scan; type: binding; conditions: 10 µM
T36 construct: purchased DiscoverX (KINOMEscan)

Compound `Nc1ccc(N=Nc2ccccc2)c(N)n1` [phenazopyridine, 2,6-diamino-3-(phenylazo)pyridine] has a kinase inhibition (CDK9) of 88, a kinase inhibition (NLK) of 88 and a kinase inhibition (MST1) of 88. For the same compound, the kinase inhibition (TLK1) was 70, the “remaining binding (% of control)” value (RIPK1) was 100 and the “remaining binding (% of control)” value (EGFR(E746-A750del)) was 69. The remaining activity (PIK3C2G; 10 µM) was 24, the remaining binding at 10 µM (PIK3C2G; read-out: % Of control) was 24% and the kinase inhibition (ERK5) was 95. For the same compound, the kinase inhibition (PKMYT1) was 85, the kinase inhibition (PIM3) was 100 and the kinase inhibition (EPHA8) was 86. For the same compound, the kinase inhibition (TRKC) was 90, the kinase inhibition (YSK1) was 96 and the kinase inhibition (GRK4) was 95. For the same compound, the kinase inhibition (IKK-beta) was 89, the kinase inhibition (PAK1) was 100 and the kinase inhibition (p38-beta) was 83. For the same compound, the kinase inhibition (MAP3K3) was 89, the kinase inhibition (PIM2) was 100 and the kinase inhibition (CSNK1G1) was 85. It also gave a kinase inhibition (EIF2AK1) of 100, a kinase inhibition (MYLK2) of 91 and a kinase inhibition (KIT(D816V)) of 100. For the same compound, the kinase inhibition (CLK4) was 72, the kinase inhibition (CDK3) was 100 and the kinase inhibition (MAP4K2) was 65. For the same compound, the kinase inhibition (WEE2) was 100, the Kd (TYK2) was 26 µM and the kinase inhibition (RIPK4) was 100. For the same compound, the “remaining binding (% of control)” value (DYRK1A) was 73, the kinase inhibition (AURKA) was 100 and the kinase inhibition (BMPR1B) was 95. The kinase inhibition (JNK1) was 78, the kinase inhibition (HPK1) was 67 and the Concentration [1] was 16.7 µM. The kinase inhibition (MEK4) was 48, the “remaining binding (% of control)” value (RET(V804M)) was 100 and the kinase inhibition (ACVR2A) was 94.
